# Assay results as given in US6500794B1, “Granulated bleaching activator” (Kao Corporation, priority 1999, dated 2002).
# Assay: Solubility of component (a) in aqueous nonionic surfactant solution, requirements (1) and (2)
# Type: physicochemical
# Conditions: 10° C., stirred five minutes; for solubility of the component (a), Condition (2): 0.1 g component (a) (A-1) in 0.25 g nonionic surfactant / 500 ml water; for solubility of the component (a), Condition (1): 0.1 g component (a) (A-1) in 10 g nonionic surfactant / 500 ml water
# Method: (1) when 0.1 g of the component (a) is added to an aqueous solution produced by dissolving 10 g of the component (b1) in 500 ml of water at 10° C. and the mixture was stirred for five minutes, the solubility of the component (a) just after the stirring is 50% by weight or more; and
# Herein, the solubility was measured using the following method.
# Method for Measuring Solubility
# 1 l glass beaker (cylinder type; inside diameter: 105 mm, height: 15 cm) was charged with 500 ml of an aqueous solution in which the component (b1) was dissolved in an amount corresponding to the requirements (1) and (2) and the solution was stirred (using a magnetic stirrer; a cylindrical stirrer piece with a diameter of 15 mm and a length of 52 mm, 200 rpm) in a thermostat kept at 10° C. At the stage in which the temperature of the solution reached 10° C., the powdery component (a) having a bulk density of […] and containing 10% by weight or less of particles with a grain size of 125 μm was added thereto in a prescribed amount and then the solution was stirred for 5 minutes. Thereafter, the solution was filtered through a membrane filter (Cellulose Nitrate A045A047A, 0.47 μm, manufactured by […]) and the content of the component (a) in the filtrate was determined by using high performance liquid chromatography to determine the solubility by the following formula. [formula]
# Granulated Bleaching activator having the compositions shown in Table 2 were prepared by using the bleaching activator A-1 and nonionic surfactants B-1 and B-2 described below according to the method described below. Also, granulated bleaching activators were prepared in the same manner as above by using B′-1, B′-2 and B′-3 as comparative nonionic surfactants. Each solubility of these nonionic surfactants in the conditions (1) and (2) are shown below.
substance,measurement,value
C12H25O—(EO)7—H [B′-1],"solubility of the component (a), Condition (2)",32%
same,"solubility of the component (a), Condition (1)",82%
C12H25O—(EO)5—(PO)2—(EO)5—H [Example B-1],"solubility of the component (a), Condition (2)",7%
same,"solubility of the component (a), Condition (1)",79%
C12H25O—(EO)15—H [B′-3],"solubility of the component (a), Condition (2)",3%
same,"solubility of the component (a), Condition (1)",46%
C12H25O—(EO)10—(PO)4—H [Example B-2],"solubility of the component (a), Condition (2)",0.5%
same,"solubility of the component (a), Condition (1)",81%
